# Measured values reported in PMC4842970, “Bioactivity Focus of α-Cyano-4-hydroxycinnamic acid (CHCA) Leads to Effective Multifunctional Aldose Reductase Inhibitors” (Scientific Reports, 2016).
# Legend:
# ALR1 = target: T1, ALR1 (Gallus gallus, UniProt Q5ZK84); assay: ALR1 activity in glucose-treated embryos (chicken ALR1 ELISA kit); format: in vivo; details: glucose-treated chick embryos, EDD 5, compared with the model group
# T1 construct: Embryos on EDD 5 were homogenized with chicken saline and centrifuged; from tissue; host or cells: EDD 5 chick (leghorn) embryo homogenate supernatant
# T1 sequence (Q5ZK84 1-327): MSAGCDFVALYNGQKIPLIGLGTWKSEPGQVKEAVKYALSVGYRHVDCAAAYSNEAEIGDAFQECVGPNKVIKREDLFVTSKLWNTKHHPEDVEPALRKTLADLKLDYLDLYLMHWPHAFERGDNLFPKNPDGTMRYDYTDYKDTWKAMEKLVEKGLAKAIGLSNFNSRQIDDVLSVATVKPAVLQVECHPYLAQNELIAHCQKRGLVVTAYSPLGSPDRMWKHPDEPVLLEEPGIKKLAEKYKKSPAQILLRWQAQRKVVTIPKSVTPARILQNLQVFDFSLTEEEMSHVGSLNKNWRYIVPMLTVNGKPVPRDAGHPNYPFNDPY
# Procedure: (§1) Embryos on EDD 5 were homogenized with chicken saline and centrifuged (4 °C, 10000 rpm, 10 min). The supernatant was used for measuring ALR1 activity in the sample. A chicken ALR1 ELISA kit (Jianglai Biotechnology, China) were used for detection. The concentration of ALR1 in the samples was then determined by comparing the OD of the samples to the standard curve.
# chick embryo = assay: Chick embryo model of hyperglycemia: mortality, NTD rate, body weight; format: in vivo; details: glucose 0.4 mmol/egg
# Procedure: In order to evaluate further the potential of 5f as an agent to treat diseases caused by high glucose inside the system, a chick embryo model of treatment with high glucose was set up.
# Fertilized leghorn eggs were purchased from the Avian Farm of the South China Agriculture University (Guangzhou, China). Before the injection of glucose (Sigma–Aldrich, MO, USA), the eggs were incubated in a humidified incubator (Grumbach, Germany) at 37 °C with 60% humidity until the embryos reached the desired stage. […] Glucose was dissolved in 200 μL chicken saline and injected on EDD 1. Mortality, abnormality and body weight measurements were made on EDD 5. Embryos were removed from their eggs and weighed. The percent mortality was measured by counting the number of dead versus all embryos. The rate of NTD of the embryos was assessed by the number of NTD versus survival embryos.
# ALR2 = assay: AR (ALR2) activity in glucose-treated embryos (chicken AR ELISA kit); format: in vivo; details: glucose-treated chick embryos, EDD 5, dose 1 μM
# Procedure: As expected, treatment of 5f decreased ALR2 activity in a dose-dependent manner. […] However, EDA, which is a clinical radical scavenger, was shown no effect on the inhibition of ALR2.
# as §1, with “AR” for “ALR1”, “curve. The sorbitol contents of the chick embryo were determined by a Sorbitol Colorimetric Assay Kit (BioVision, USA). In the assay, sorbitol is oxidized to fructose with the proportional development of intense color with an absorbance maximum at 560 nm.” for “curve.”
# HEK293 cells = assay: Cytotoxicity, MTT growth inhibition; format: cell-based, human; details: 500 μM
# Procedure: In another aspect, the toxicity was evaluated by the growth inhibition of 5f against human embryonic kidney 293 (HEK293) cells. It was shown that 5f was nontoxic to HEK293 cells even at high concentration of 500 μM (Supplementary B of Fig. S2).
# HEK293 cells were purchased from Centre of Cells Resource, Shanghai Institute of Life Science, Chinese Academy of Sciences, P. R. China. HEK293 cells in the exponential phase were plated on a 96-well cell culture plate with 5 × 10^3 cells in each well supplemented with 100 U/ml of penicillin and 100 μg/ml of streptomycin, which were cultured in a humidified atmosphere of 95% and 5% CO2 at 37 °C for 24 h. The cells were adherent. […] 6 wells were set for each group. The wells without addition of the drug were set as controls. The cells in each of the wells were cultured for another 24 h. Then 15 μl of MTT (5 mg/mL) was added to each well. The plates were then incubated at 37 °C for 4 hours, then the supernatants were discarded. 150 μL of DMSO solutions were added to each of the wells and the solutions were mixed thoroughly. Then the plates were incubated at 37 °C for another 10 minutes. Each sample was mixed again and the resulting formazan was measured by its absorbance at 570 nm using a BIO-RAD680 plate reader (Thermo, USA). The experiments were repeated at least 3 times and compared with the control experiment. […]
smiles,measurement,setting,value
"CC(=O)N[C@H](COCc1ccccc1)C(=O)NCCCNC(=O)/C(C#N)=C/c1ccc(O)cc1 [Compound 5f, (R,E) - N - (3-(2-acetamido-3-(benzyloxy)propanamido)propyl)-2-cyano-3-(4-hydroxyphenyl)acrylamide]",ALR1 level in embryo,ALR1,no obvious change
same,Body weight,"chick embryo; EDD 5, dose 10 nM (CL)",291.3 ± 10.2 mg
same,Death (/n),"chick embryo; EDD 5, dose 10 nM (CL)",35.0%
same,NTD (/survival),"chick embryo; EDD 5, dose 10 nM (CL)",46.20%
same,Body weight,"chick embryo; EDD 5, dose 100 nM (CM)",295.9 ± 13.2 mg
same,Death (/n),"chick embryo; EDD 5, dose 100 nM (CM)",30.0%
same,NTD (/survival),"chick embryo; EDD 5, dose 100 nM (CM)",35.7%
same,Body weight,"chick embryo; EDD 5, dose 1 μM",307.9 ± 10.5 mg
same,Death (/n),"chick embryo; EDD 5, dose 1 μM",25.0%
same,NTD (/survival),"chick embryo; EDD 5, dose 1 μM",20.0%
same,ALR2 activity in embryo,ALR2,close to that of the control
same,inhibition rate (growth inhibition),HEK293 cells,19.2%
